According to ChEMBL document CHEMBL1857833, “Screening and optimization of specific chemical series against human African Trypanosomiasis (HAT)”:
Values after ≈ are worked out from the molar mass of the structure shown. Values joined by “and” are separate entries in the source; they are usually repeats but may differ in a detail not shown here. Identical values can stand only once.

Experiments:
[1] = DNDI: Cytotoxicity against L929 mouse fibroblasts, CYTO-SP, 24 hour; format: toxicity, cell-based; settings: mouse, L929 mouse fibroblasts
Trypanosoma brucei = test: DNDI: Inhibition of Human African Trypanosomiasis, SBRI 427, in vitro; format: functional, organism-based
in vitro = settings: mouse, liver microsomes, t (1 / 2)
Description: DNDI: half life in mouse liver microsomes at a concentration of 1uM

[2] = mouse, microsomes, 1 µM
Description: DNDI: in vitro intrinsic clearance in mouse liver microsomes at a concentration of 1uM

[3] = DNDI: Cytotoxicity against L929 mouse fibroblasts, 72 hour.; format: toxicity, cell-based; settings: mouse, L929 mouse fibroblasts
[4] = DNDI: Lipophilicity measured in Chromatographic hydrophobicity index (CHI) assay, pH 7.4; format: physicochemical; settings: buffer
[5] = DNDI: Solubility in phosphate buffered saline at pH7.4 measured by nephelometry at room temperature (NEPH-RT); format: physicochemical; settings: pH 7.4
[6] = Trypanosoma brucei, SBRI 427, read-out: IC50

| SMILES | IC50 at 24 h [1] [µg/mL] | IC50 (Trypanosoma brucei; [6]) [µg/mL] | half-life at 1 µM (in vitro) [min] | CLint in vitro [2] [µL/min/mg] | IC50 at 72 h [3] [µg/mL] | chromatographic logD [4] | solubility kinetic [5] [µM] | IC50 (Trypanosoma brucei) |
| --- | --- | --- | --- | --- | --- | --- | --- | --- |
| CCCCCOc1ccc(-c2nc(CNC3[C@H]4C[C@@H]5C[C@@H](C[C@H]3C5)C4)co2)cc1 (stereo not given in full) | > 50 | 0.3 (≈ 0.76 µM) | 32 | 27 | < 3.13 |  |  |  |
| CCc1ccccc1N/C(=N\O)c1ccccc1-c1ccccc1 | 16.3 (≈ 51.5 µM) | > 5 | 4 | 209 |  |  |  |  |
| CN1CC(OC(=O)c2ccccc2)=CC1=O |  | > 5 |  |  | > 10 | 2.34 | > 200 |  |
| CCCCCC(C)NCc1coc(-c2ccc(OC3CCCCC3)cc2)n1 (stereo not given) |  | 0.39 (≈ 1.05 µM) | 65 | 13 | 1.48 (≈ 3.99 µM) | 4.28 | 3 (≈ 1.11 µg/mL) |  |
| CCCOc1ccc(-c2nc(CN[C@@H]3C[C@@H]4C[C@H]([C@H]3C)C4(C)C)co2)cc1 | 15.7 (≈ 42.7 µM) | 0.49 (≈ 1.33 µM) | 28 | 30 | < 3.13 |  |  |  |
| FC(F)(F)c1ccc(CNC(c2nc(Cc3ccccc3)c(N3CCOCC3)o2)C2CC2)cc1 (stereo not given) |  | 4.53 (≈ 9.61 µM) |  |  | > 10 |  | 6 (≈ 2.83 µg/mL) |  |
| O/N=C(\NC1CCCCC1)c1ccc(-c2ccccc2)cc1 | 36 (≈ 122 µM) | > 5 | 3 | 280 |  |  |  |  |
| COc1cccc(OC)c1CNCc1coc(-c2ccc(C(C)(C)C)cc2)n1 | 43.2 (≈ 114 µM) |  |  |  | 2.07 (≈ 5.44 µM) |  | 1 (≈ 0.38 µg/mL) | 1.43 µg/mL and 0.89 µg/mL and 2.17 µg/mL |
| Cc1ccc(CNC(c2nc(-c3ccccc3)c(N3CCCCC3)o2)C2CC2)cc1 (stereo not given) |  | 4.56 (≈ 11.4 µM) |  |  | > 10 | > 5.2 | 3 (≈ 1.2 µg/mL) |  |
| CCCCCC(C)NCc1coc(-c2ccc(C3CCCCC3)cc2)n1 (stereo not given) |  | 0.22 (≈ 0.621 µM) | 232 | 4 | 0.67 (≈ 1.89 µM) |  |  |  |
| CCN(CC)CCCNc1cc(-c2ccccc2)nc2cc(-c3ccc(F)cc3)nn12 |  | 2.46 (≈ 5.89 µM) |  |  | 3.05 (≈ 7.3 µM) | 4.84 | 25 (≈ 10.4 µg/mL) |  |
| COc1ccc(C(=O)OC2=CC(=O)N(C)C2)cc1 |  | > 5 |  |  | > 10 | 2.72 | > 200 |  |
| CCCCCC(C)NCc1coc(-c2ccc(Oc3ccc(OC)cc3)cc2)n1 (stereo not given) |  | 1.29 (≈ 3.27 µM) | 34 | 25 | 5.61 (≈ 14.2 µM) |  |  |  |
| O/N=C(\NC1CCCCC1)C1CCCCC1 | > 50 | > 5 |  |  |  | 4.41 | > 200 |  |
| Cc1cccc(-c2nc(CNCCC3CCCN3C)c(C)o2)c1 (stereo not given) |  | 0.55 (≈ 1.75 µM) |  |  | 9.29 (≈ 29.6 µM) | 3.3 | > 200 |  |
| CC(C)CNC(CCc1ccccc1)c1nc(Cc2ccccc2)c(N2CCCCC2)o1 (stereo not given) |  | > 5 | 3 | 307 | > 10 |  | 6 (≈ 2.59 µg/mL) |  |
| O/N=C(\NC1CCCCC1)c1cccnc1Oc1c(F)cccc1F | > 50 | 0.46 (≈ 1.32 µM) | 2 | 351 | > 10 |  |  | 0.48 µg/mL (≈ 1.38 µM) |
| O=C(NC1CCCCC1)c1ccccc1-c1ccccc1 | > 50 | > 5 | 7 | 116 |  |  |  |  |
| CCCCCC(C)NCc1coc(-c2ccc(Oc3ccc(Cl)cc3)cc2)n1 (stereo not given) |  | 0.34 (≈ 0.852 µM) | 313 | 3 | 2.07 (≈ 5.19 µM) |  |  |  |
| CCC(C)C(NCc1ccccc1OC)c1nc(-c2ccccc2)c(N2CCOCC2)o1 (stereo not given) |  | 4.06 (≈ 9.32 µM) | 2 | 440 | > 10 |  | 6 (≈ 2.61 µg/mL) |  |
| CCCCCC(C)NCc1coc(-c2cc(OC)cc(OC)c2)n1 (stereo not given) |  | 1.25 (≈ 3.76 µM) |  |  | 4.75 (≈ 14.3 µM) |  | 6 (≈ 1.99 µg/mL) |  |
| CC(C)(C)CNCc1coc(-c2ccc(OCC(C)(C)C)cc2)n1 |  | 0.42 (≈ 1.27 µM) | 267 | 3 | 1.35 (≈ 4.09 µM) |  |  |  |
| CCCCCC(C)NCc1coc(-c2ccc(C)c(OC)c2)n1 (stereo not given) |  | 1.6 (≈ 5.06 µM) | 10 | 87 | 5.27 (≈ 16.7 µM) |  |  |  |
| N=C(NC1CCCCC1)c1ccccc1-c1ccccc1 | > 50 | > 5 |  |  |  | 2.87 | > 200 |  |
| Cc1ccc(CNC(c2ccccc2)c2nc(Cc3ccccc3)c(N3CCOCC3)o2)cc1 (stereo not given) |  | 4.86 (≈ 10.7 µM) |  |  | > 10 |  | 6 (≈ 2.72 µg/mL) |  |
